Test results published in ChEMBL document CHEMBL4339210, “Synthesis and evaluation of histamine H3 receptor ligand based on lactam scaffold as agents for treating neuropathic pain” (Bioorg Med Chem Lett, 2019).
The source made the active and inactive calls. No cut-off for these calls is given here.

Assays:
Histamine H1 receptor = Histamine H1 receptor (Cavia porcellus, UniProt P31389); assay: Displacement of [3H]-mepyramine from histamine H1 receptor in guinea pig cerebellum homogenates incubated for 60 mins by Cheng and Prusoff equation analysis by scintillation counting analysis; assay type: tissue-based
Sequence of Histamine H1 receptor (P31389 whole entry): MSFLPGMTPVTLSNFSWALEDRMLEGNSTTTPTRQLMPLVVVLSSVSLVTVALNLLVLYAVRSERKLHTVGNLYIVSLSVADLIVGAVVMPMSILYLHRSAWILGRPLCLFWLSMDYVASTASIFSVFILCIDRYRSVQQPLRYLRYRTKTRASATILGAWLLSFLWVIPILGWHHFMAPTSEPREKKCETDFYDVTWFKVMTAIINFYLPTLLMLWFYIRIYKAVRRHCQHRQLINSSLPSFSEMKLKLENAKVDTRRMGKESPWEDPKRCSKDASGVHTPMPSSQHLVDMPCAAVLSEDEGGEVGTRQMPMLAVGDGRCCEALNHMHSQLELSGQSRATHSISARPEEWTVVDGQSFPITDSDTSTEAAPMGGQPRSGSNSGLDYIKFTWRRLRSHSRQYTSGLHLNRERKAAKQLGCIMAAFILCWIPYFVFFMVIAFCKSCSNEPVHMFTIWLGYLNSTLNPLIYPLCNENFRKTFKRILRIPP

Histamine H3 receptor = Histamine H3 receptor (Rattus norvegicus, UniProt Q9QYN8); assay: Displacement of [3H]-N-alpha-methylhistamine from histamine H3 receptor in rat cerebral cortex homogenates incubated for 60 mins by Cheng and Prusoff equation analysis by scintillation counting analysis
Sequence of Histamine H3 receptor (Q9QYN8 whole entry): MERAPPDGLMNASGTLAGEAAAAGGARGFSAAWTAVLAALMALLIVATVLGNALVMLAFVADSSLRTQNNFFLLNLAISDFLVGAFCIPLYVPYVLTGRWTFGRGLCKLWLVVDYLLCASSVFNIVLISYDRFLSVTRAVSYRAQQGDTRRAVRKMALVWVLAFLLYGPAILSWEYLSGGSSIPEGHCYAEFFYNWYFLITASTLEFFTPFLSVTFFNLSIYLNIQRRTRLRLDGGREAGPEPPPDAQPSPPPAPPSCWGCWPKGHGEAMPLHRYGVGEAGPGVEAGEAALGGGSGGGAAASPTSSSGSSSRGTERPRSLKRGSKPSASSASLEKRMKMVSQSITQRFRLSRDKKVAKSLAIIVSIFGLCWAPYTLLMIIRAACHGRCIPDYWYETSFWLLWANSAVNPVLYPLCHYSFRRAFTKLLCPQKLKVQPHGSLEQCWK

Rattus norvegicus [1] = assay: Anti-nociceptive activity in Sprague-Dawley rat assessed as reduction in total time spent licking injected paw during early phase (0 to 5 mins) at 1 mg/kg, po dosed 1 hr before formalin injection; assay type: functional, organism-based
Rattus norvegicus [2] = assay: Anti-nociceptive activity in Sprague-Dawley rat assessed as reduction in total time spent licking injected paw during delayed phase (15 to 45 mins) at 1 mg/kg, po dosed 1 hr before formalin injection; assay type: functional, organism-based
Rattus norvegicus [3] = assay: Anti-nociceptive activity in Sprague-Dawley rat assessed as reduction in total time spent licking injected paw during early phase (0 to 5 mins) at 40 mg/kg, po dosed 1 hr before formalin injection; assay type: functional, organism-based
Rattus norvegicus [4] = assay: Anti-nociceptive activity in Sprague-Dawley rat assessed as reduction in total time spent licking injected paw during delayed phase (15 to 45 mins) at 40 mg/kg, po dosed 1 hr before formalin injection; assay type: functional, organism-based
[5] = Acute toxicity in KM mouse assessed as effect on survival at 50 to 1000 mg/kg, po after 24 hrs; assay type: organism-based; conditions: in vivo
Rattus norvegicus [6] = assay: Anti-nociceptive activity in Sprague-Dawley rat assessed as reduction in total time spent licking injected paw during early phase (0 to 5 mins) at 1 to 10 mg/kg, po dosed 1 hr before formalin injection; assay type: functional
Rattus norvegicus [7] = assay: Anti-nociceptive activity in Sprague-Dawley rat assessed as reduction in total time spent licking injected paw during delayed phase (15 to 45 mins) at 1 to 10 mg/kg, po dosed 1 hr before formalin injection; assay type: functional

| SMILES | Ki (Histamine H1 receptor) | Ki (Histamine H3 receptor) | further results |
| --- | --- | --- | --- |
| CN1CCc2ccc(OCCCCN3CCOCC3)cc2C1=O | 856 nM | – | – |
| CN1CCc2ccc(OCCCN3CCC(O)CC3)cc2C1=O | 35 nM | 908 nM | – |
| NC(=O)c1ccc(OCCCN2C[C@H]3CCC[C@H]3C2)cc1 | 3.6 nM | 426 nM | Activity (Rattus norvegicus [1]): Active; Activity (Rattus norvegicus [2]): Active |
| CN1CCc2ccc(OCCCN3CCC(O)C3)cc2C1=O (stereo not drawn) | 112 nM | – | – |
| CC(C)C[C@H](CN)CC(=O)O | – | – | Activity (Rattus norvegicus [3]): Active; Activity (Rattus norvegicus [4]): Active |
| CN1CCc2ccc(OCCCN3CCCC3)cc2C1=O | 39 nM | 169 nM | – |
| CN1CCc2ccc(OCCCN3CCC(=O)CC3)cc2C1=O | 176 nM | – | – |
| CN1CCN(CCCOc2ccc3c(c2)C(=O)N(C)CC3)CC1 | 706 nM | – | – |
| CCN1CCc2ccc(OCCCN3CCOCC3)cc2C1=O | 252 nM | – | – |
| CC1CCCCN1CCCOc1ccc2c(c1)C(=O)N(C)CC2 (stereo not drawn) | 165 nM | – | – |
| CC1CCN(CCCOc2ccc3c(c2)C(=O)N(C)CC3)CC1 | 32 nM | 279 nM | – |
| CCN1CCN(CCCOc2ccc3c(c2)C(=O)N(C)CC3)CC1 | 1100 nM | – | – |
| CCN(CC)CCCOc1ccc2c(c1)C(=O)N(C)CC2 | 542 nM | – | – |
| CN1CCc2ccc(OCCCN3CCOCC3)cc2C1=O | 6.5 nM | 1030 nM | LD50 at 24 h [5]: > 1000 mg/kg; Activity (Rattus norvegicus [6]): Dose-dependent effect; ED50 (Rattus norvegicus [6]): 1.3 mg/kg; Activity (Rattus norvegicus [7]): Dose-dependent effect; ED50 (Rattus norvegicus [7]): 2.4 mg/kg |
| CC1CCCN1CCCOc1ccc2c(c1)C(=O)N(C)CC2 (stereo not drawn) | 26 nM | 68 nM | – |
| CN1CCc2ccc(OCCCN3CCCCC3)cc2C1=O | 23 nM | 189 nM | – |
| CN1CCc2ccc(OCC(O)CN3CCOCC3)cc2C1=O (stereo not drawn) | > 2000 nM | – | – |
| CN1CCc2ccc(OCCN3CCOCC3)cc2C1=O | 1210 nM | – | – |
